Measured values from patent US11046716B2, “Beta-lactamase inhibitors” (priority 2015, dated 2021).

Key:
SHV-5 = molecular target: T1, SHV-5 (Klebsiella pneumoniae, UniProt P0A3M1); assay: β-lactamase enzyme inhibition assay, SHV-5 (cefotaxime substrate); assay type: biochemical
T1 construct: made in house; host or cells: E. coli BL21(DE3)
Procedure, shortened: (§1)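 Untagged enzyme from E. coli BL21(DE3), purified by Capto S then Superdex 75; 15 min 37 °C preincubation with inhibitor; KPC-2 read with imipenem at 300 nm, SHV-5 with cefotaxime at 260 nm, OXA-1 with nitrocefin 100 μM final at 486 nm; 10 min kinetic read; IC50 vs uninhibited wells.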

KPC-2 = molecular target: T2, KPC-2 (Klebsiella pneumoniae, UniProt Q9F663); assay: β-lactamase enzyme inhibition assay, KPC-2 (imipenem substrate); assay type: biochemical; conditions: Class A; imipenem substrate, 300 nm; read-out: KPC-2
T2 construct: made in house; host or cells: E. coli BL21(DE3)
T2 sequence (Q9F663 25-293, looked up): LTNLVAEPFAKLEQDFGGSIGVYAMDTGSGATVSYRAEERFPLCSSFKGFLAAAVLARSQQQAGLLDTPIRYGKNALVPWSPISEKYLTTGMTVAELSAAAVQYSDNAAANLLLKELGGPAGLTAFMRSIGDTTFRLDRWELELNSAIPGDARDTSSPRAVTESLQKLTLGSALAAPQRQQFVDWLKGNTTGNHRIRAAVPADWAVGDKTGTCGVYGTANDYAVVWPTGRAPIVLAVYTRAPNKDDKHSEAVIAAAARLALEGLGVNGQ
Procedure, shortened: as §1

VIM-2 = molecular target: T3, VIM-2 (Escherichia coli, UniProt Q5U7L7); assay: β-lactamase enzyme inhibition assay, VIM-2 (nitrocefin substrate); assay type: biochemical; conditions: Class B; nitrocefin substrate, 486 nm; read-out: VIM-2
T3 construct: made in house; host or cells: E. coli BL21(DE3)
Procedure, shortened: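 Nitrocefin hydrolysis (100 μM final, A486 read for 10 min) by purified VIM-2 after a 15-min, 37° C enzyme–inhibitor preincubation. IC50 is the concentration halving initial hydrolysis rate, derived from percent inhibition against no-inhibitor wells.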

AmpC = molecular target: T4, AmpC (Enterobacter cloacae, UniProt P05364); assay: β-lactamase enzyme inhibition assay, p99 AmpC (nitrocefin substrate); assay type: biochemical
T4 construct: made in house; host or cells: E. coli BL21(DE3)
T4 sequence (P05364 21-381): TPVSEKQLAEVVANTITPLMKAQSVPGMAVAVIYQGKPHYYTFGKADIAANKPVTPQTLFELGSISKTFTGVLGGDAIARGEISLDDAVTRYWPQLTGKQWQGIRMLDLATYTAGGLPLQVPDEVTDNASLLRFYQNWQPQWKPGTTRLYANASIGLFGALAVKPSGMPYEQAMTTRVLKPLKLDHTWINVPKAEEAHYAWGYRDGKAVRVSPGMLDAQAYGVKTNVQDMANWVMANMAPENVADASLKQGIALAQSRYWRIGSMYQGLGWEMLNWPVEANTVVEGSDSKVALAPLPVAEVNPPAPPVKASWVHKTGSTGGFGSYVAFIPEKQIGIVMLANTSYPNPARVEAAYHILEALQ
Procedure, shortened: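 Untagged enzyme from E. coli BL21(DE3), purified by Capto S then Superdex 75; 15 min 37 °C preincubation with inhibitor; 10 min kinetic read; IC50 vs uninhibited wells.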

OXA-48 = OXA-48 (UniProt Q6XEC0); assay: β-lactamase enzyme inhibition assay, Class D oxacillinase; assay type: biochemical; conditions: read-out: OXA-48
[1] = test system: E. coli expressing the Class A Extended Spectrum Beta-Lactamase (ESBL) CTX-M-15; assay: Broth microdilution MIC assay with ceftazidime, E. coli CTX-M-15; assay type: cell-based; conditions: Fixed CAZ (ceftazidime) 4 μg/mL; E. coli ESBL4 CTX-M-15
Procedure, shortened: (§2)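 CLSI broth microdilution in cation-adjusted Mueller Hinton broth measured growth of β-lactamase-expressing strains, grown 3-5 h beforehand. The β-lactam partner was held at 4 μg/ml final while test compound was titrated 2-fold from 16 to 0.125 μg/mL final. After 16-20 h at 37° C, the compound MIC was determined by eye.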

[2] = test system: E. cloacae expressing the Class C P99; assay: Broth microdilution MIC assay with ceftazidime, E. cloacae P99; assay type: cell-based; conditions: Fixed CAZ (ceftazidime) 4 μg/mL; E. cl. 144200 p99 AmpC
Procedure, shortened: as §2

[3] = test system: K. pneumoniae expressing the Class A carbapenemase KPC-2; assay: Broth microdilution MIC assay with meropenem, K. pneumoniae KPC-2; assay type: cell-based; conditions: Fixed Mero (meropenem) 4 μg/mL; K. p. 156319 KPC-3
Procedure, shortened: as §2

[4] = test system: P. aeruginosa expressing the Class B carbapenemase VIM-2; assay: Broth microdilution MIC assay with meropenem, P. aeruginosa VIM-2; assay type: cell-based; conditions: Fixed Mero (meropenem) 4 μg/mL; P. aerug. 2775 VIM-2
Procedure, shortened: as §2

[5] = test system: K. pneumoniae expressing the class A carbapenemase KPC-2 and the class B carbapenemase VIM-4; assay: Broth microdilution MIC assay with meropenem, K. pneumoniae KPC-2 and VIM-4; assay type: cell-based; conditions: Fixed Mero (meropenem) 4 μg/mL; K. p. A-1797 KPC-2 VIM-4
Procedure, shortened: as §2

[6] = test system: K. pneumoniae producing the Class D carbapenemase OXA-48; assay: Broth microdilution MIC assay with meropenem, K. pneumoniae OXA-48; assay type: cell-based; conditions: Fixed Mero (meropenem) 4 μg/mL; K. p. 11978 OXA-48
Procedure, shortened: as §2

T1 sequence (P0A3M1 22-286): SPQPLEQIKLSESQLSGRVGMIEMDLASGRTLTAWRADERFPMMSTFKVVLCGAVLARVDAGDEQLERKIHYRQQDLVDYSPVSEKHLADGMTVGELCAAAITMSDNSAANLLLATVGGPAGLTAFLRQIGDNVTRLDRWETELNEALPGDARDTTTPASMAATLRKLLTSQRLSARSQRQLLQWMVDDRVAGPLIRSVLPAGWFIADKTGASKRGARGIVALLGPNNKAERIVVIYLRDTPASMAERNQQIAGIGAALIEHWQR

Compound | IC50 (SHV-5) [nM] | IC50 (KPC-2) [nM] | IC50 (VIM-2) [nM] | IC50 (AmpC) [nM] | IC50 (OXA-48) [nM] | MIC (μg/mL) of Exemplary Compounds in presence of fixed β-lactams: E. coli ESBL4 CTX-M-15 [1] | MIC (μg/mL) of Exemplary Compounds in presence of fixed β-lactams: E. cl. 144200 p99 AmpC [2] | MIC (μg/mL) of Exemplary Compounds in presence of fixed β-lactams: K. p. 156319 KPC-3 [3] | MIC (μg/mL) of Exemplary Compounds in presence of fixed β-lactams: P. aerug. 2775 VIM-2 [4] | MIC (μg/mL) of Exemplary Compounds in presence of fixed β-lactams: K. p. A-1797 KPC-2 VIM-4 [5] | MIC (μg/mL) of Exemplary Compounds in presence of fixed β-lactams: K. p. 11978 OXA-48 [6]
Nc1ccc(-c2cn(CC(=O)N[C@H]3Cc4cccc(C(=O)O)c4OB3O)nn2)cn1 [Example 74, (R)-3-(2-(4-(6-aminopyridin-3-yl)-1H-1,2,3-triazol-1-yl)acetamido)-2-hydroxy-3,4-dihydro-2H-benzo[e][1,2]oxaborinine-8-carboxylic acid] | < 100 | < 100 | 1000 to 10000 | < 100 | 100 to 1000 | C (C represents an MIC of <1 μg/mL) | C (C represents an MIC of <1 μg/mL) | B (B represents an MIC between 1 and 16 μg/mL inclusive) | B (B represents an MIC between 1 and 16 μg/mL inclusive) | A (A represents an MIC>16 μg/mL) | B (B represents an MIC between 1 and 16 μg/mL inclusive)
O=C(Cn1cc(-c2cccnc2)nn1)N[C@H]1Cc2cccc(C(=O)O)c2OB1O [Example 12, (R)-2-hydroxy-3-(2-(4-(pyridin-3-yl)-1H-1,2,3-triazol-1-yl)acetamido)-3,4-dihydro-2H-benzo[e][1,2]oxaborinine-8-carboxylic acid] | < 100 | < 100 | 1000 to 10000 | < 100 | 100 to 1000 | C (C represents an MIC of <1 μg/mL) | C (C represents an MIC of <1 μg/mL) | B (B represents an MIC between 1 and 16 μg/mL inclusive) | B (B represents an MIC between 1 and 16 μg/mL inclusive) | A (A represents an MIC>16 μg/mL) | B (B represents an MIC between 1 and 16 μg/mL inclusive)
N[C@H]1CCN(C(=O)c2cn(CC(=O)N[C@H]3Cc4cccc(C(=O)O)c4OB3O)nn2)C1 [Example 66, (R)-3-(2-(4-((S)-3-aminopyrrolidine-1-carbonyl)-1H-1,2,3-triazol-1-yl)acetamido)-2-hydroxy-3,4-dihydro-2H-benzo[e][1,2]oxaborinine-8-carboxylic acid] | < 100 | < 100 | < 100 | < 100 | 100 to 1000 | C (C represents an MIC of <1 μg/mL) | C (C represents an MIC of <1 μg/mL) | C (C represents an MIC of <1 μg/mL) | C (C represents an MIC of <1 μg/mL) | B (B represents an MIC between 1 and 16 μg/mL inclusive) | B (B represents an MIC between 1 and 16 μg/mL inclusive)
COc1c(C[C@H](NC(=O)Cn2cc(CN)nn2)B(O)O)cccc1C(=O)O [Example 31, (R)-3-(2-(2-(4-(aminomethyl)-1H-1,2,3-triazol-1-yl)acetamido)-2-boronoethyl)-2-methoxybenzoic acid] | < 100 | < 100 | 100 to 1000 | 100 to 1000 | 1000 to 10000 | B (B represents an MIC between 1 and 16 μg/mL inclusive) | C (C represents an MIC of <1 μg/mL) | B (B represents an MIC between 1 and 16 μg/mL inclusive) | C (C represents an MIC of <1 μg/mL) | B (B represents an MIC between 1 and 16 μg/mL inclusive) | A (A represents an MIC>16 μg/mL)
NCc1cn(CC(=O)N[C@H]2Cc3cccc(C(=O)O)c3OB2O)nn1 [Example 2, (R)-3-(2-(4-(aminomethyl)-1H-1,2,3-triazol-1-yl)acetamido)-2-hydroxy-3,4-dihydro-2H-benzo[e][1,2]oxaborinine-8-carboxylic acid] | < 100 | < 100 | < 100 | < 100 | 100 to 1000 | C (C represents an MIC of <1 μg/mL) | C (C represents an MIC of <1 μg/mL) | C (C represents an MIC of <1 μg/mL) | C (C represents an MIC of <1 μg/mL) | C (C represents an MIC of <1 μg/mL) | B (B represents an MIC between 1 and 16 μg/mL inclusive)
O=C(Cc1nnn[nH]1)N[C@H]1Cc2cccc(C(=O)O)c2OB1O [Example 40, (R)-3-(2-(1H-tetrazol-5-yl)acetamido)-2-hydroxy-3,4-dihydro-2H-benzo[e][1,2]oxaborinine-8-carboxylic acid] | < 100 | < 100 | 1000 to 10000 | < 100 | 100 to 1000 | C (C represents an MIC of <1 μg/mL) | C (C represents an MIC of <1 μg/mL) | C (C represents an MIC of <1 μg/mL) | B (B represents an MIC between 1 and 16 μg/mL inclusive) | B (B represents an MIC between 1 and 16 μg/mL inclusive) | B (B represents an MIC between 1 and 16 μg/mL inclusive)
NCCn1cncc1C(=O)N[C@H]1Cc2cccc(C(=O)O)c2OB1O [Example 73, (R)-3-(1-(2-aminoethyl)-1H-imidazole-5-carboxamido)-2-hydroxy-3,4-dihydro-2H-benzo[e][1,2]oxaborinine-8-carboxylic acid] | < 100 | < 100 | 100 to 1000 | < 100 | 100 to 1000 | C (C represents an MIC of <1 μg/mL) | C (C represents an MIC of <1 μg/mL) | B (B represents an MIC between 1 and 16 μg/mL inclusive) | C (C represents an MIC of <1 μg/mL) | B (B represents an MIC between 1 and 16 μg/mL inclusive) | B (B represents an MIC between 1 and 16 μg/mL inclusive)
